Experimental data as given in patent US20220233512A1, “INHIBITING AN IMMUNE RESPONSE MEDIATED BY ONE OR MORE OF TLR2, RAGE, CCR5, CXCR4 AND CD4” (priority 2020, published 2022).

Biological target: T1, mu opiate receptor (MOR) (Rattus norvegicus, UniProt P33535)
T1 construct: from tissue; host or cells: striatum (membrane preparation)
Assay: MOR agonist activity using [35S]GTPgS binding assay in striatal membranes
Format: biochemical
Design: MOR agonist activity (preliminary study): unit of the concentration uncertain
Conditions: for MOR agonist activity (preliminary study): average of two runs
Procedure: To assess the mu opiate receptor (MOR) agonist activity of positive compounds from the FLNA screening, compounds were tested in a [^35S]GTPgS binding assay using striatal membranes. […] This assay measures a functional consequence of receptor occupancy at one of the earliest receptor-mediated events. The assay permits for traditional pharmacological parameters of potency, efficacy and antagonist affinity, with the advantage that agonist measures are not subjected to amplification or other modulation that may occur when analyzing parameters further downstream of the receptor.
Thus, striatal tissue was homogenized in 10 volumes of ice cold 25 mM HEPES buffer, pH 7.4, which contained 1 mM EGTA, 100 mM sucrose, 50 mg/ml leupeptin, 0.04 mM PMSF, 2 mg/ml soybean trypsin inhibitor and 0.2% 2-mercaptoethanol. The homogenates were centrifuged at 800×g for 5 minutes and the supernatants were centrifuged at 49,000×g for 20 minutes. The resulting pellets were suspended in 10 volume of reaction buffer, which contained 25 mM HEPES, pH 7.5, 100 mM NaCl, 50 mg/ml leupeptin, 2 mg/ml soybean trypsin inhibitor, 0.04 mM PMSF and 0.02% […].
The resultant striatal membrane preparation (200 mg) was admixed and maintained (incubated) at 30° C. for 5 minutes in reaction buffer as above that additionally contained 1 mM MgCl2 and 0.5 nM [^35S]GTPgS (0.1 mCi/assay, PerkinElmer Life and Analytical Sciences) in a total volume of 250 ml and continued for 5 minutes in the absence or presence of 0.1-10 mM of an assayed compound of interest. The reaction was terminated by dilution with 750 ml of ice-cold reaction buffer that contained 20 mM MgCl2 and 1 mM EGTA and immediate centrifugation at 16,000×g for 5 minutes.
The resulting pellet was solubilized by sonicating for 10 seconds in 0.5 ml of immunoprecipitation buffer containing 0.5% digitonin, 0.2% sodium cholate and 0.5% NP-40. Normal rabbit serum (1 ml) was added to 1 ml of lysate and incubated at 25° C. for 30 minutes. Nonspecific immune complexes were removed by incubation with 25 ml of protein A/G-conjugated agarose beads at 25° C. for 30 minutes followed by centrifugation at 5,000×g at 4° C. for 5 minutes. The supernatant was divided and separately incubated at 25° C. for 30 minutes with antibodies raised against Gao proteins (1:1,000 dilutions).
The immunocomplexes so formed were collected by incubation at 25° C. for 30 minutes with 40 ml of agarose-conjugated protein A/G beads and centrifugation at 5,000×g at 4° C. for 5 minutes. The pellet was washed and suspended in buffer containing 50 mM Tris-HCl, pH 8.0, and 1% NP-40. The radioactivity in the suspension was determined by liquid scintillation spectrometry. […] DAMGO (1 or 10 mM) was used as a positive control.

[1] = 0.1 μM compound as agonist, Series C-2 table
[2] = 1 μM compound as agonist, Series C-2 table
[3] = 0.1 (unit uncertain) compound as agonist
[4] = 1 (unit uncertain) compound as agonist
[5] = 0.1 μM compound as agonist, Series C-1 table
[6] = 1 μM compound as agonist, Series C-1 table

T1 sequence (P33535 whole entry): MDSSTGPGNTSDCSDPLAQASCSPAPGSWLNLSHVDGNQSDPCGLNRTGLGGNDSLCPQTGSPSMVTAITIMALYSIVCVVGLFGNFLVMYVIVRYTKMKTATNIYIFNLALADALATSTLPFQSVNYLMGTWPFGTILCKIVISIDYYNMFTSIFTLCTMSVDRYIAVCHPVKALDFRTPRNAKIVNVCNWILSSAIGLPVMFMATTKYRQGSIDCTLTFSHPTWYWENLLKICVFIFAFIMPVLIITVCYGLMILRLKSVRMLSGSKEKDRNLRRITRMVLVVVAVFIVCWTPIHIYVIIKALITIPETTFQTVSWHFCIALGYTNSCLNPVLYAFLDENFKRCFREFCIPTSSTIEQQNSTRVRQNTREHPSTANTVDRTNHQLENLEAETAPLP

SMILES	MOR agonist activity ([35S]GTPgS binding to Gao) [5]	MOR agonist activity ([35S]GTPgS binding to Gao) (1 μM + BFNA, Series C-1 table)	MOR agonist activity ([35S]GTPgS binding to Gao) [6]	further results
O=C1CN(C2CCc3ccccc3C2)C2(CCN(S(=O)(=O)c3ccccc3)CC2)N1 (stereo not drawn) [C0136M/ (P5)]				MOR agonist activity ([35S]GTPgS binding to Gao) [1]: 176.8%; MOR agonist activity ([35S]GTPgS binding to Gao) (1 μM + BFNA, Series C-2 table): 74.5%; MOR agonist activity ([35S]GTPgS binding to Gao) [2]: 237.3%
O=C1CN(Cc2ccccc2)C2(CCN(C3CCCCC3)CC2)N1 [C0137M P7]				MOR agonist activity ([35S]GTPgS binding to Gao) [1]: 180.8%; MOR agonist activity ([35S]GTPgS binding to Gao) (1 μM + BFNA, Series C-2 table): 55.8%; MOR agonist activity ([35S]GTPgS binding to Gao) [2]: 193.8%
O=S(=O)(c1ccc(OC(F)(F)F)cc1)N1CCOC12CCN(CC1CC1)CC2 [Compound 4]				MOR agonist activity (preliminary study) (1 mM + bNFA): 49.5%; MOR agonist activity (preliminary study) [3]: 133.9%; MOR agonist activity (preliminary study) [4]: 165.2%
Cc1ccc(S(=O)(=O)N2CCOC23CCN(CC2CCC2)CC3)cc1 [Compound 9]				MOR agonist activity (preliminary study) (1 mM + bNFA): 56.6%; MOR agonist activity (preliminary study) [3]: 156.6%; MOR agonist activity (preliminary study) [4]: 197.2%
C=CCN1CCC2(CC1)OCCN2S(=O)(=O)c1ccc(C)cc1 [Compound 10]				MOR agonist activity (preliminary study) (1 mM + bNFA): 60.4%; MOR agonist activity (preliminary study) [3]: 163.1%; MOR agonist activity (preliminary study) [4]: 191.8%
COc1ccc(S(=O)(=O)N2CCC3(CC2)OCCN3S(=O)(=O)c2ccc(OC)cc2)cc1 [Compound 7866]	152.3%	62.4%	308.2%	
Cc1ccc(S(=O)(=O)N2CCC3(CC2)OCCN3S(=O)(=O)c2ccc(C)cc2)cc1 [Compound C0001]	129.3%	33.9%	184.3%	
COc1cccc(S(=O)(=O)N2CCC3(CC2)OCCN3S(=O)(=O)c2cccc(OC)c2)c1 [Compound C0002]	88.4%	3.9%	93.8%	
COc1ccccc1S(=O)(=O)N1CCC2(CC1)OCCN2S(=O)(=O)c1ccccc1OC [Compound C0003]	162.3%	107.7%	215.9%	
N#Cc1ccccc1S(=O)(=O)N1CCC2(CC1)OCCN2S(=O)(=O)c1ccccc1C#N [Compound C0004]	122.0%	65.8%	228.4%	
O=S(=O)(c1cccc(OC(F)(F)F)c1)N1CCC2(CC1)OCCN2S(=O)(=O)c1cccc(OC(F)(F)F)c1 [Compound C0005]	180.4%	166.4%	227.2%	
O=S(=O)(c1ccc(OC(F)(F)F)cc1)N1CCC2(CC1)OCCN2S(=O)(=O)c1ccc(OC(F)(F)F)cc1 [Compound C0006]	121.5%	4.6%	204.0%	
CC(C)c1ccc(S(=O)(=O)N2CCC3(CC2)OCCN3S(=O)(=O)c2ccc(C(C)C)cc2)cc1 [Compound C0007]	79.1%	10.9%	195.0%	
N#Cc1ccc(S(=O)(=O)N2CCC3(CC2)OCCN3S(=O)(=O)c2ccc(C#N)cc2)cc1 [Compound C0008]	71.2%	2.8%	201.6%	
CS(=O)(=O)c1ccc(S(=O)(=O)N2CCC3(CC2)OCCN3S(=O)(=O)c2ccc(S(C)(=O)=O)cc2)cc1 [Compound C0009]	146.3%	26.4%	256.2%	
O=S(=O)(c1ccc(-c2ccccc2)cc1)N1CCC2(CC1)OCCN2S(=O)(=O)c1ccc(-c2ccccc2)cc1 [Compound C0010]	136.5%	89.1%	307.0%	
